{
  "source": "ChEMBL document CHEMBL1142404",
  "about": "“Synthesis of 2-modified aristeromycins and their analogs as potent inhibitors against Plasmodium falciparum S-adenosyl-L-homocysteine hydrolase” (Bioorg Med Chem, 2008)",
  "key": {"adenosine deaminase": {"system": "adenosine deaminase", "experiment": "Metabolic stability in presence of calf intestinal adenosine deaminase assessed as compound remaining after 15 mins", "type": "ADME", "conditions": "cattle, read-out: Activity"}, "Adenosylhomocysteinase [1]": {"biological_target": "Adenosylhomocysteinase (Plasmodium falciparum 3D7, UniProt P50250)", "sequence (P50250 whole entry)": "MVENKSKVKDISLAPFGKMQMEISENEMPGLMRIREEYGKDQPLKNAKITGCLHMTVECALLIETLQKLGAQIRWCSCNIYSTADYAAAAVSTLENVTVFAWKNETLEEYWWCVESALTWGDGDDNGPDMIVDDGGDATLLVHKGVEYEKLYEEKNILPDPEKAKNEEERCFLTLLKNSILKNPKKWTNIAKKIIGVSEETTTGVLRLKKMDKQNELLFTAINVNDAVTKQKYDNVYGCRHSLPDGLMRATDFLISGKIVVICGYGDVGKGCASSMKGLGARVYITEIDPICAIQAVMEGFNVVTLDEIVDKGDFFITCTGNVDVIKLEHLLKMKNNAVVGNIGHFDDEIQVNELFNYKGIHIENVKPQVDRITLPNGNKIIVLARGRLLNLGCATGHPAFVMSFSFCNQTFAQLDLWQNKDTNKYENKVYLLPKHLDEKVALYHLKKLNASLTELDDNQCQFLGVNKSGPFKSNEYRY", "experiment": "Inhibition of Plasmodium falciparum SAHH"}, "Adenosylhomocysteinase [2]": {"biological_target": "Adenosylhomocysteinase (Homo sapiens, UniProt P23526)", "sequence (P23526 whole entry)": "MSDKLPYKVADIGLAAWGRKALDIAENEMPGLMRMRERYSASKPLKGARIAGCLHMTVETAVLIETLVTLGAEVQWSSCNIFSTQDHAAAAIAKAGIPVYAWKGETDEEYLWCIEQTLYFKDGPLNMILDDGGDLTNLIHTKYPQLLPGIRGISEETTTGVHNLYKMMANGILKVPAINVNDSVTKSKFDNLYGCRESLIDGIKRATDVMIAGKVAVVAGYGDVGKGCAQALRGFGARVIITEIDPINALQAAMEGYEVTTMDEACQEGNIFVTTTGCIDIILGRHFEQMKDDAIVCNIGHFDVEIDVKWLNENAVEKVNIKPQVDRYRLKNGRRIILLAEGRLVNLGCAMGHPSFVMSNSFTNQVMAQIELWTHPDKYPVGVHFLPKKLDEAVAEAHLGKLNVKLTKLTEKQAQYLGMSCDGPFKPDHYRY", "experiment": "Inhibition of human SAHH"}},
  "data": [
    {"smiles": "Nc1ncnc2c1ncn2[C@@H]1C[C@H](CO)[C@@H](O)[C@H]1O", "note": "[ARISTEROMYCIN]", "values": [
      {"measurement": "remaining at 0.25 h", "setting": "adenosine deaminase", "result": 22.4, "unit": "%"}
    ]},
    {"smiles": "Nc1nc(F)nc2c1ncn2[C@@H]1C[C@H](CO)[C@@H](O)[C@H]1O", "values": [
      {"measurement": "IC50", "setting": "Adenosylhomocysteinase [1]", "result": 1.98, "unit": "µM"},
      {"measurement": "remaining at 0.25 h", "setting": "adenosine deaminase", "result": 99.5, "unit": "%"},
      {"measurement": "IC50", "setting": "Adenosylhomocysteinase [2]", "result": 47.2, "unit": "µM"}
    ]},
    {"smiles": "Nc1nc(N)c2ncn([C@@H]3C[C@H](CO)[C@@H](O)[C@H]3O)c2n1", "values": [
      {"measurement": "IC50", "setting": "Adenosylhomocysteinase [1]", "result": 4.51, "unit": "µM"},
      {"measurement": "remaining at 0.25 h", "setting": "adenosine deaminase", "result": 95.2, "unit": "%"},
      {"measurement": "IC50", "setting": "Adenosylhomocysteinase [2]", "result": 90.7, "unit": "µM"}
    ]}
  ]
}
